Measurements from patent US12428415B2, “Matriptase 2 inhibitors and uses thereof” (Disc Medicine, Inc., priority 2018, dated 2025).

Biological target: T1, Human Recombinant Matriptase 2 (Homo sapiens, UniProt Q8IU80)
T1 construct: purchased Enzo Life Sciences (an in-house preparation was also used) ALX-201-752-1
T1 sequence (Q8IU80 1-811): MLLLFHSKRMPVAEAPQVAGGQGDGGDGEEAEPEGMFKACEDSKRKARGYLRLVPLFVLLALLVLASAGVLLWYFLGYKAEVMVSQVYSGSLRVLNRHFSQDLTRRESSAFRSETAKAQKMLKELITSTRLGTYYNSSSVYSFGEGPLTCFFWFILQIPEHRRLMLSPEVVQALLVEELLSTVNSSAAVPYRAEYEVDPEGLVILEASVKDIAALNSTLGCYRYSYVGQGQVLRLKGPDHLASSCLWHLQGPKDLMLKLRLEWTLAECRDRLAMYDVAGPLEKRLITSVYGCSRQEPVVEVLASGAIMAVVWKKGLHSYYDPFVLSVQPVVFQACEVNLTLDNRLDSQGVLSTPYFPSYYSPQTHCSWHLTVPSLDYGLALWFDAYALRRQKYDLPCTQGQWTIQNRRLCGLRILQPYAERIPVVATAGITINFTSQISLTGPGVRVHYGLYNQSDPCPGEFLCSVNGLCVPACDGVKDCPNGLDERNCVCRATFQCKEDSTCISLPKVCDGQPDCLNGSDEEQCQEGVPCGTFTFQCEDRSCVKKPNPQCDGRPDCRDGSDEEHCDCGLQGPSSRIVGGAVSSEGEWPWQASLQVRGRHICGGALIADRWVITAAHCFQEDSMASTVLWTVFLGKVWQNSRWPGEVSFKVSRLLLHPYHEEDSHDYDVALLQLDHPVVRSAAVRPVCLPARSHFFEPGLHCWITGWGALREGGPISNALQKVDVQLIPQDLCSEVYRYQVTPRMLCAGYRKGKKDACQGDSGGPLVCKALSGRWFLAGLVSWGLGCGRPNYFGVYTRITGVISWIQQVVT
Test: Matriptase 2 fluorescence based inhibition assay, Method B (50 mM TRIS pH 7.5, 150 mM NaCl, 0.01% gelatin)
Type: biochemical
Conditions: 1 uM compound; Assay Used = B (Method B); read-out: Mar-2 % inhibition at 1 uM
Summary of the method: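 Fluorogenic substrate Boc-Gln-Ala-Arg-7-amido-4-methylcoumarin (100 μM) cleavage read at Ex 360/Em 480 nm 60 min after addition, following 30 min enzyme–compound preincubation at 25° C. Enzyme was 7 nM commercial or 15 nM in-house; DMSO 1%. IC50s fitted by non-linear sigmoidal regression.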

Row | inhibition at 1 µM [%] | SMILES
1 | 0 to 25 | N=C(N)c1ccc2cc(C(=O)OCCN)n(Cc3cccc4ccccc34)c2c1 [Compound I-745]
2 | 50 to 75 | N=C(N)c1ccc2cc(C(=O)O)n(Cc3cc(Oc4ccccc4)cc4ccccc34)c2c1 [Compound I-746]
3 | 0 to 25 | CNC(=N)c1ccc2[nH]c(C(=O)N[C@H]3CC[C@H](N)CC3)c(Cc3cccc4ccccc34)c2c1 [Compound I-747]
4 | 75 to 100 | N=C(N)c1ccc2cc(-c3ncco3)n(Cc3cccc4ccccc34)c2c1 [Compound I-748, 1-(naphthalen-1-ylmethyl)-2-(oxazol-2-yl)-1H-indole-6-carboximidamide]
5 | 50 to 75 | CS(=O)(=O)Nc1cc2ccc(C(=N)N)cc2n1Cc1cccc2ccccc12 [Compound I-749, 2-(methylsulfonamido)-1-(naphthalen-1-ylmethyl)-1H-indole-6-carboximidamide]
6 | 50 to 75 | N=C(N)c1ccc2cc(-c3nccs3)n(Cc3cccc4ccccc34)c2c1 [Compound I-750, 1-(naphthalen-1-ylmethyl)-2-(thiazol-2-yl)-1H-indole-6-carboximidamide]
7 | 50 to 75 | Cc1nnc(-c2cc3ccc(C(=N)N)cc3n2Cc2cccc3ccccc23)o1 [Compound I-751, 2-(5-methyl-1,3,4-oxadiazol-2-yl)-1-(naphthalen-1-ylmethyl)-1H-indole-6-carboximidamide]
8 | 75 to 100 | CN1CCC(OC(=O)c2cc3ccc(C(=N)N)cc3n2Cc2cccc3ccccc23)CC1 [Compound I-752]
9 | 50 to 75 | CS(=O)(=O)N[C@H]1CC[C@H](NC(=O)c2cc3ccc(C(=N)N)cc3n2Cc2cccc3ccccc23)CC1 [Compound I-753]
10 | 50 to 75 | CC(=O)N[C@H]1CC[C@H](NC(=O)c2cc3ccc(C(=N)N)cc3n2Cc2cccc3ccccc23)CC1 [Compound I-754]
11 | 25 to 50 | N=C(N)c1ccc2cc(C(=O)N[C@H]3CC[C@H](N)CC3)n(Cc3cnoc3-c3ccc(Cl)s3)c2c1 [Compound I-755]
12 | 75 to 100 | N=C(N)c1ccc2cc(C(=O)N[C@H]3CC[C@H](N)CC3)n(Cc3csc4ccccc34)c2c1 [Compound I-756]
13 | 50 to 75 | N=C(N)c1ccc2cc(C(=O)NCc3ccncc3)n(Cc3cccc4ccccc34)c2c1 [Compound I-758]
14 | 0 to 25 | N/C(=N/O)c1ccc2cc(C(=O)O)n(Cc3cccc4ccccc34)c2c1 [Compound I-759]
15 | 0 to 25 | N=C(N)c1ccc2cc(C(=O)Nc3cccc4c3OCCO4)n(Cc3cccc4ccccc34)c2c1 [Compound I-760]
16 | 75 to 100 | CN1CCC(COC(=O)c2cc3ccc(C(=N)N)cc3n2Cc2cccc3ccccc23)CC1 [Compound I-761]
17 | 0 to 25 | CC(=O)NC(=N)c1ccc2cc(C(=O)NC3CCN(C)CC3)n(Cc3cccc4ccccc34)c2c1 [Compound I-762, 6-(N-acetylcarbamimidoyl)-N-(1-methylpiperidin-4-yl)-1-(naphthalen-1-ylmethyl)-1H-indole-2-carboxamide]
18 | 50 to 75 | N=C(N)c1ccc2cc(C(=O)Nc3ccncc3)n(Cc3cccc4ccccc34)c2c1 [Compound I-763]
19 | 0 to 25 | N=C(N)c1ccc2cc(C(=O)N[C@H]3CCCc4ccccc43)n(Cc3cccc4ccccc34)c2c1 [Compound I-764]
20 | 0 to 25 | CCCCCCOC(=O)NC(=N)c1ccc2cc(C(=O)NC3CCN(C)CC3)n(Cc3cccc4ccccc34)c2c1 [Compound I-765]
21 | 75 to 100 | N=C(N)c1ccc2cc(C(=O)O)n(Cc3cccc4ccccc34)c2n1 [Compound I-766]
22 | 0 to 25 | CC(C)(C)OC(=O)NC(=N)c1ccc2cc(C(=O)N[C@H]3CCCc4ccccc43)n(Cc3cccc4ccccc34)c2c1 [Compound I-767]

Row | inhibition at 1 µM [%] | SMILES
23 | 75 to 100 | N=C(N)c1ccc2cc(C(=O)N[C@H]3CC[C@H](N)CC3)n(Cc3cccc4cc(-c5ccccc5)ccc34)c2c1 [Compound I-768]
24 | 75 to 100 | N=C(N)c1ccc2cc(C(=O)N[C@H]3CC[C@H](N)CC3)n(Cc3cccc4c(OCc5ccccc5)cccc34)c2c1 [Compound I-769]
25 | 50 to 75 | N=C(N)c1ccc2cc(C(=O)N[C@H]3CC[C@H](N)CC3)n(Cc3cccc4cc(OCCCc5ccccc5)ccc34)c2c1 [Compound I-770]
26 | 25 to 50 | N=C(N)c1ccc2cc(C(=O)Nc3ccc4ncccc4c3)n(Cc3cccc4ccccc34)c2c1 [Compound I-771]
27 | 50 to 75 | N=C(N)c1ccc2cc(C(=O)N[C@H]3CC[C@H](N)CC3)n(Cc3cc(-c4ccc(Cl)s4)on3)c2c1 [Compound I-773]
28 | 75 to 100 | N=C(N)c1ccc2cc(C(=O)N[C@H]3CC[C@H](N)CC3)n(Cc3cc(C(=O)OCc4ccccc4)cc4ccccc34)c2c1 [Compound I-774]
29 | 75 to 100 | COc1ccc2cccc(Cn3c(C(=O)N[C@H]4CC[C@H](N)CC4)cc4ccc(C(=N)N)cc43)c2c1 [Compound I-775]
30 | 75 to 100 | N=C(N)c1ccc2cc(C(=O)N[C@H]3CC[C@H](N)CC3)n(Cc3cc(Oc4ccccc4)cc4ccccc34)c2c1 [Compound I-777]
31 | 25 to 50 | CN1CC[C@H](COC(=O)c2cc3ccc(C(=N)N)cc3n2Cc2cccc3ccccc23)c2ccccc21 [Compound I-779]
32 | 75 to 100 | CC(C)COC(=O)c1cc(Cn2c(C(=O)N[C@H]3CC[C@H](N)CC3)cc3ccc(C(=N)N)cc32)c2ccccc2c1 [Compound I-780]
33 | 75 to 100 | N=C(N)c1ccc2cc(C(=O)N[C@H]3CC[C@H](N)CC3)n(Cc3ccc(COCc4ccccc4)c4ccccc34)c2c1 [Compound I-781]
34 | 0 to 25 | CC(C)COC(=O)NC(=N)c1ccc2cc(C(=O)NC3CCN(C)CC3)n(Cc3cccc4ccccc34)c2c1 [Compound I-783]
35 | 25 to 50 | CC(C)OC(=O)NC(=N)c1ccc2cc(C(=O)NC3CCN(C)CC3)n(Cc3cccc4ccccc34)c2c1 [Compound I-784]
36 | 0 to 25 | CC(C)OC(=O)NC(=N)c1ccc2cc(C(=O)O)n(Cc3cccc4ccccc34)c2c1 [Compound I-786]
37 | 0 to 25 | CC(C)(C)OC(=O)N[C@H]1CC[C@H](NC(=O)c2cc3ccc(C(=N)N)cc3n2Cc2cccc3ccccc23)CC1 [Compound I-787]
38 | 25 to 50 | N=C(N)c1ccc2cc(C(=O)N[C@H]3CC[C@H](N)CC3)n(Cc3ccc(C(=O)N4CCCC4)c4ccccc34)c2c1 [Compound I-790]
39 | 0 to 25 | CC(C)COC(=O)NC(=N)c1ccc2cc(C(=O)O)n(Cc3cccc4ccccc34)c2c1 [Compound I-791]
40 | 75 to 100 | N=C(N)c1ccc2cc(C(=O)N[C@H]3CC[C@H](N)CC3)n(Cc3cccc4c(Br)cccc34)c2c1 [Compound I-792]
41 | 50 to 75 | CC(C)Oc1ccc2c(Cn3c(C(=O)O)cc4ccc(C(=N)N)cc43)cccc2c1 [Compound I-793]
42 | 75 to 100 | N=C(N)c1ccc2cc(C(=O)N[C@H]3CC[C@H](N)CC3)n(Cc3ccc(Br)c4ccccc34)c2c1 [Compound I-794]
43 | 0 to 25 | COc1ccc2c(Cn3c(C(=O)N[C@H]4CC[C@H](N)CC4)cc4ccc(/C(N)=N\O)cc43)cccc2c1 [Compound I-795]

Same assay, conditions: read-out: Mar-2 % inhibition at 1 uM

Row | SMILES | inhibition at 1 µM [%]
44 | CN1CCC(NC(=O)c2cc3ccc(C(=N)NC(=O)Oc4ccccc4)cc3n2Cc2cccc3ccccc23)CC1 [Compound I-782] | 50 to 75
